According to PubChem BioAssay AID1963960 (Molecular Pharmacology Branch, DTP, NCI, 2024):

System: MDA-MB-468 spheroids with HUVEC/MSC, viability
Assay: Anticancer human tumor MDA-MB-468 cell line growth inhibition [PI3K];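 note: spheroids exposed to agents for seven days before readout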;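 for viability, T/C: 100% = DMSO vehicle control viability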
Settings: for IC50: curve of first compound; for viability, T/C: stronger effect = lower value
Summary of the method: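 Agents were dosed from a top concentration near clinical Cmax (otherwise 10 microM) in half-log decrements, alone or combined with PI3K inhibitors. The spheroids contain tumor cells plus endothelial (HUVEC) and MSC stroma; viability is measured.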

With `Cn1cnc2c(F)c(Nc3ccc(Br)cc3Cl)c(C(=O)NOCCO)cc21` + CC(Nc1ncnc2nc[nH]c12)c1cc2cccc(Cl)c2c(=O)n1-c1ccccc1 the IC50 (second compound 0.0316 µM) was over 3 µM, the IC50 (second compound 0.1 µM) was over 3 µM and the IC50 (second compound 0.316 µM) was over 3 µM. For the same compound, the IC50 (second compound 1 µM) was over 3 µM, the IC50 (second compound 3.16 µM) was 1.96 µM and the IC50 (second compound 10 µM) was under 0.00949 µM. For the same compound, the viability, T/C (second compound 0.0316 µM, first compound 0.00949 µM) was 88.8%, the viability, T/C (second compound 0.0316 µM, first compound 0.03 µM) was 90% and the viability, T/C (second compound 0.0316 µM, first compound 0.0949 µM) was 82.5%. It also gave a viability, T/C (second compound 0.0316 µM, first compound 0.3 µM) of 92.8%, a viability, T/C (second compound 0.0316 µM, first compound 0.949 µM) of 81.8% and a viability, T/C (second compound 0.0316 µM, first compound 3 µM) of 57.5%. The viability, T/C (second compound 0.1 µM, first compound 0.00949 µM) was 77%, the viability, T/C (second compound 0.1 µM, first compound 0.03 µM) was 86.9% and the viability, T/C (second compound 0.1 µM, first compound 0.0949 µM) was 101%. The viability, T/C (second compound 0.1 µM, first compound 0.3 µM) was 89.1%, the viability, T/C (second compound 0.1 µM, first compound 0.949 µM) was 86.1% and the viability, T/C (second compound 0.1 µM, first compound 3 µM) was 58.4%. For the same compound, the viability, T/C (second compound 0.316 µM, first compound 0.00949 µM) was 85.2%, the viability, T/C (second compound 0.316 µM, first compound 0.03 µM) was 83.8% and the viability, T/C (second compound 0.316 µM, first compound 0.0949 µM) was 75.6%. It also gave a viability, T/C (second compound 0.316 µM, first compound 0.3 µM) of 92.5%, a viability, T/C (second compound 0.316 µM, first compound 0.949 µM) of 90.3% and a viability, T/C (second compound 0.316 µM, first compound 3 µM) of 60.7%. It also gave a viability, T/C (second compound 1 µM, first compound 0.00949 µM) of 63.4%, a viability, T/C (second compound 1 µM, first compound 0.03 µM) of 66.1% and a viability, T/C (second compound 1 µM, first compound 0.0949 µM) of 76%. For the same compound, the viability, T/C (second compound 1 µM, first compound 0.3 µM) was 73.9%, the viability, T/C (second compound 1 µM, first compound 0.949 µM) was 67.6% and the viability, T/C (second compound 1 µM, first compound 3 µM) was 58.8%. It also gave a viability, T/C (second compound 3.16 µM, first compound 0.00949 µM) of 58.2%, a viability, T/C (second compound 3.16 µM, first compound 0.03 µM) of 58.5% and a viability, T/C (second compound 3.16 µM, first compound 0.0949 µM) of 55.8%. It also gave a viability, T/C (second compound 3.16 µM, first compound 0.3 µM) of 54.3%, a viability, T/C (second compound 3.16 µM, first compound 0.949 µM) of 66% and a viability, T/C (second compound 3.16 µM, first compound 3 µM) of 37.2%. The viability, T/C (second compound 10 µM, first compound 0.00949 µM) was 43.3%, the viability, T/C (second compound 10 µM, first compound 0.03 µM) was 41.2% and the viability, T/C (second compound 10 µM, first compound 0.0949 µM) was 37.6%. For the same compound, the viability, T/C (second compound 10 µM, first compound 0.3 µM) was 35.6%, the viability, T/C (second compound 10 µM, first compound 0.949 µM) was 29.4% and the viability, T/C (second compound 10 µM, first compound 3 µM) was 16.4%.

For `CNC(=O)c1ccc(N2C(=S)N(c3ccc(C#N)c(C(F)(F)F)c3)C(=O)C2(C)C)cc1F` + Cc1nc(NC(=O)N2CCCC2C(N)=O)sc1-c1ccnc(C(C)(C)C(F)(F)F)c1, the IC50 (second compound 0.0316 µM) was over 10 µM, the IC50 (second compound 0.1 µM) was over 10 µM and the IC50 (second compound 0.316 µM) was over 10 µM. For the same compound, the IC50 (second compound 1 µM) was over 10 µM, the IC50 (second compound 3.16 µM) was 4.9 µM and the IC50 (second compound 10 µM) was under 0.0316 µM. For the same compound, the viability, T/C (second compound 0.0316 µM, first compound 0.0316 µM) was 96.8%, the viability, T/C (second compound 0.0316 µM, first compound 0.1 µM) was 97.2% and the viability, T/C (second compound 0.0316 µM, first compound 0.316 µM) was 83.9%. It also gave a viability, T/C (second compound 0.0316 µM, first compound 1 µM) of 114%, a viability, T/C (second compound 0.0316 µM, first compound 3.16 µM) of 97.4% and a viability, T/C (second compound 0.0316 µM, first compound 10 µM) of 62.5%. For the same compound, the viability, T/C (second compound 0.1 µM, first compound 0.0316 µM) was 92.4%, the viability, T/C (second compound 0.1 µM, first compound 0.1 µM) was 101% and the viability, T/C (second compound 0.1 µM, first compound 0.316 µM) was 96.2%. It also gave a viability, T/C (second compound 0.1 µM, first compound 1 µM) of 106%, a viability, T/C (second compound 0.1 µM, first compound 3.16 µM) of 82.8% and a viability, T/C (second compound 0.1 µM, first compound 10 µM) of 52.2%. It also gave a viability, T/C (second compound 0.316 µM, first compound 0.0316 µM) of 99.8%, a viability, T/C (second compound 0.316 µM, first compound 0.1 µM) of 78.2% and a viability, T/C (second compound 0.316 µM, first compound 0.316 µM) of 73.3%. For the same compound, the viability, T/C (second compound 0.316 µM, first compound 1 µM) was 103%, the viability, T/C (second compound 0.316 µM, first compound 3.16 µM) was 74.6% and the viability, T/C (second compound 0.316 µM, first compound 10 µM) was 59%. The viability, T/C (second compound 1 µM, first compound 0.0316 µM) was 97%, the viability, T/C (second compound 1 µM, first compound 0.1 µM) was 76.9% and the viability, T/C (second compound 1 µM, first compound 0.316 µM) was 67.4%. The viability, T/C (second compound 1 µM, first compound 1 µM) was 90.5%, the viability, T/C (second compound 1 µM, first compound 3.16 µM) was 59.2% and the viability, T/C (second compound 1 µM, first compound 10 µM) was 58%. It also gave a viability, T/C (second compound 3.16 µM, first compound 0.0316 µM) of 79.8%, a viability, T/C (second compound 3.16 µM, first compound 0.1 µM) of 64.5% and a viability, T/C (second compound 3.16 µM, first compound 0.316 µM) of 65.3%. It also gave a viability, T/C (second compound 3.16 µM, first compound 1 µM) of 74.8%, a viability, T/C (second compound 3.16 µM, first compound 3.16 µM) of 49.4% and a viability, T/C (second compound 3.16 µM, first compound 10 µM) of 42.5%. The viability, T/C (second compound 10 µM, first compound 0.0316 µM) was 39.8%, the viability, T/C (second compound 10 µM, first compound 0.1 µM) was 28.3% and the viability, T/C (second compound 10 µM, first compound 0.316 µM) was 35.4%. It also gave a viability, T/C (second compound 10 µM, first compound 1 µM) of 29.4%, a viability, T/C (second compound 10 µM, first compound 3.16 µM) of 25.2% and a viability, T/C (second compound 10 µM, first compound 10 µM) of 25.6%.
